Reference: patent US9533973B2, “Allosteric modulators of 5-hydroxytryptamine 2C receptor (5-HT2CR)” (THE BOARD OF REGENTS OF THE UNIVERSITY OF TEXAS SYSTEM, priority 2011, dated 2017)

Assay: Solubility of representative compounds (Table 1)
Assay type: physicochemical
Conditions: solvents listed

Row | Solubility | Compound
1 | EtOH, DMSO | Cc1ccc(CC[C@H]2CCNC(C(=O)N[C@@H](CO)[C@@H](O)c3ccccc3)C2)cc1 (stereo in doubt) [CYD-6-9-1, (2S,4S)—N-((1S,2S)-1,3-dihydroxy-1-phenylpropan-2-yl)-4-(4-methylphenethyl)piperidine-2-carboxamide]
2 | EtOH, DMSO | CC1CCC(CC[C@H]2CCNC(C(=O)N[C@@H](CO)[C@@H](O)c3ccccc3)C2)CC1 (stereo in doubt) [CYD-6-10-1, (2S,4S)—N-((1S,2S)-1,3-dihydroxy-1-phenylpropan-2-yl)-4-(2-(4-methylcyclohexyl)ethyl)piperidine-2-carboxamide]
3 | EtOH, DMSO | CC1CCC(CC[C@@H]2CCN[C@H](C(=O)N[C@@H](CO)C(O)c3ccccc3)C2)CC1 (stereo in doubt) [CYD-6-10-2, (2S,4R)—N-((1R,2S)-1,3-dihydroxy-1-phenylpropan-2-yl)-4-(2-(4-methylcyclohexyl)ethyl)piperidine-2-carboxamide]
4 | EtOH, DMSO | O=C(N[C@@H](CO)[C@@H](O)c1ccccc1)C1C[C@@H](C2CCCCC2)CCN1 (stereo in doubt) [CYD-6-15-1, (2S,4S)-4-cyclohexyl-N-((1S,2S)-1,3-dihydroxy-1-phenylpropan-2-yl)piperidine-2-carboxamide]
5 | EtOH, DMSO | O=C(N[C@@H](CO)[C@@H](O)c1ccccc1)C1C[C@@H](c2ccccc2)CCN1 (stereo in doubt) [CYD-6-16-1, (2S,4S)—N-((1S,2S)-1,3-dihydroxy-1-phenylpropan-2-yl)-4-phenylpiperidine-2-carboxamide]
6 | EtOH, DMSO | CCCCCCCCCC#Cc1ccnc(C(=O)NC(C(C)Cl)C2OC(SC)C(O)C(O)C2O)c1 (stereo not shown) [CYD-3-21, 4-Undec-1-ynyl-pyridine-2-carboxylic acid [2-chloro-1-(3,4,5-trihydroxy-6-methylsulfanyl-tetrahydro-pyran-2-yl)-propyl]-amide]
7 | EtOH, DMSO H2O | O=C(NC(CO)CO)c1ccccc1C1CCNCC1 [CYD-3-33, N-(1,3-Dihydroxypropan-2-yl)-2-(piperidin-4-yl)benzamide]
8 | EtOH, DMSO, H2O | O=C(NCC(O)CO)c1ccccc1C1CCNCC1 (stereo not shown) [CYD-3-35, N-(2,3-Dihydroxypropyl)-2-(piperidin-4-yl)benzamide]
9 | EtOH, DMSO | CCCCCCCCCCC[C@H]1CCN[C@@H](C(=O)N[C@@H](CO)[C@@H](O)c2ccccc2)C1 [CYD-3-47-1, (2R,4S)—N-((1S,2S)-1,3-dihydroxy-1-phenylpropan-2-yl)-4-undecylpiperidine-2-carboxamide]
10 | EtOH, DMSO | CCCCCCCCCCC[C@@H]1CCN[C@H](C(=O)N[C@@H](CO)[C@@H](O)c2ccccc2)C1 [CYD-3-47-2, (2S,4R)—N-((1S,2S)-1,3-dihydroxy-1-phenylpropan-2-yl)-4-undecylpiperidine-2-carboxamide]
11 | EtOH, DMSO, H2O | O=C(NCC(O)CO)C1CNCCN1c1ccccc1 (stereo not shown) [CYD-3-49, N-(2,3-Dihydroxypropyl)-1-phenylpiperazine-2-carboxamide]
12 | EtOH, DMSO, H2O | O=C(N[C@@H](CO)[C@@H](O)c1ccccc1)c1ccccc1C1CCNCC1 [CYD-3-50, N-((1S,2S)-1,3-dihydroxy-1-phenylpropan-2-yl)-2-(piperidin-4-yl)benzamide]
13 | EtOH, DMSO | CS[C@H]1O[C@H]([C@H](NC(=O)C2CC(CCc3ccccc3)CCN2)[C@@H](C)O)[C@H](O)[C@H](O)[C@H]1O (stereo partly drawn) [CYD-3-61, 2,4-cis-4-Phenethyl-piperidine-2-carboxylic acid [2-hydroxy-1-(3,4,5-trihydroxy-6-methylsulfanyl-tetrahydro-pyran-2-yl)-propyl]-amide]
14 | EtOH, DMSO | CS[C@H]1O[C@H]([C@H](NC(=O)C2CC(CCC3CCCCC3)CCN2)[C@@H](C)O)[C@H](O)[C@H](O)[C@H]1O (stereo partly drawn) [CYD-3-62, 2,4-cis-4-(2-Cyclohexyl-ethyl)-piperidine-2-carboxylic acid [2-hydroxy-1-(3,4,5-trihydroxy-6-methylsulfanyl-tetrahydro-pyran-2-yl)-propyl]-amide]
15 | EtOH, DMSO | CCCCCCCCCCC[C@@H]1CCN[C@H](C(=O)N[C@H](CO)[C@H](O)c2ccccc2)C1 [CYD-5-68-1, (2S,4R)—N-((1R,2R)-1,3-dihydroxy-1-phenylpropan-2-yl)-4-undecylpiperidine-2-carboxamide]
16 | EtOH, DMSO | CCCCCCCCCCC[C@H]1CCN[C@@H](C(=O)N[C@H](CO)[C@H](O)c2ccccc2)C1 [CYD-5-68-2, (2R,4S)—N-((1R,2R)-1,3-dihydroxy-1-phenylpropan-2-yl)-4-undecylpiperidine-2-carboxamide]

Row | Solubility | Compound
17 | EtOH, DMSO | CCCCCCCCCCC[C@H]1CCN[C@@H](C(=O)N[C@@H](CO)[C@@H](O)c2ccc(SC)cc2)C1 [CYD-5-77-1, (2R,4S)—N-((1S,2S)-1,3-dihydroxy-1-(4-(methylthio)phenyl)propan-2-yl)-4-undecylpiperidine-2-carboxamide]
18 | EtOH, DMSO | CCCCCCCCCCC[C@@H]1CCN[C@H](C(=O)N[C@@H](CO)[C@@H](O)c2ccc(SC)cc2)C1 [CYD-5-77-2, (2S,4R)—N-((1S,2S)-1,3-dihydroxy-1-(4-(methylthio)phenyl)propan-2-yl)-4-undecylpiperidine-2-carboxamide]
19 | EtOH, DMSO | CCCCCCCCCCC[C@H]1CCN[C@@H](C(=O)N[C@@H](CO)[C@@H](O)c2ccc(S(C)(=O)=O)cc2)C1 [CYD-5-80-1, (2R,4S)—N-((1S,2S)-1,3-dihydroxy-1-(4-(methylsulfonyl)phenyl)propan-2-yl)-4-undecylpiperidine-2-carboxamide]
20 | EtOH, DMSO | CCCCCCCCCCC[C@@H]1CCN[C@H](C(=O)N[C@@H](CO)[C@@H](O)c2ccc(S(C)(=O)=O)cc2)C1 [CYD-5-80-2, (2S,4R)—N-((1S,2S)-1,3-dihydroxy-1-(4-(methylsulfonyl)phenyl)propan-2-yl)-4-undecylpiperidine-2-carboxamide]
21 | EtOH, DMSO | O=C(N[C@H](CO)[C@H](O)c1ccccc1)[C@@H]1C[C@H](CCc2ccccc2)CCN1 [CYD-5-100-1, (2S,4R)—N-((1R,2R)-1,3-dihydroxy-1-phenylpropan-2-yl)-4-phenethylpiperidine-2-carboxamide]
22 | EtOH, DMSO | O=C(N[C@H](CO)[C@H](O)c1ccccc1)[C@H]1C[C@@H](CCc2ccccc2)CCN1 [CYD-5-100-2, (2R,4S)—N-((1R,2R)-1,3-dihydroxy-1-phenylpropan-2-yl)-4-phenethylpiperidine-2-carboxamide]
23 | EtOH, DMSO | O=C(N[C@H](CO)[C@H](O)c1ccccc1)[C@@H]1C[C@H](CCC2CCCCC2)CCN1 [CYD-6-1-1, (2S,4R)-4-(2-cyclohexylethyl)-N-((1R,2R)-1,3-dihydroxy-1-phenylpropan-2-yl)piperidine-2-carboxamide]
24 | EtOH, DMSO | O=C(N[C@H](CO)[C@H](O)c1ccccc1)[C@H]1C[C@@H](CCC2CCCCC2)CCN1 [CYD-6-1-2, (2R,4S)-4-(2-cyclohexylethyl)-N-((1R,2R)-1,3-dihydroxy-1-phenylpropan-2-yl)piperidine-2-carboxamide]
25 | EtOH, DMSO | CC(C)(C)c1ccc(CC[C@@H]2CCN[C@H](C(=O)N[C@H](CO)[C@H](O)c3ccccc3)C2)cc1 [CYD-6-2-1, (2S,4R)-4-(4-(tert-butyl)phenethyl)-N-((1R,2R)-1,3-dihydroxy-1-phenylpropan-2-yl)piperidine-2-carboxamide]
26 | EtOH, DMSO | CC(C)(C)c1ccc(CC[C@H]2CCN[C@@H](C(=O)N[C@H](CO)[C@H](O)c3ccccc3)C2)cc1 [CYD-6-2-2, (2R,4S)-4-(4-(tert-butyl)phenethyl)-N-((1R,2R)-1,3-dihydroxy-1-phenylpropan-2-yl)piperidine-2-carboxamide]
27 | EtOH, DMSO | Cc1ccc(CC[C@@H]2CCN[C@H](C(=O)N[C@@H](CO)[C@@H](O)c3ccccc3)C2)cc1 [CYD-6-9-2, (2S,4R)—N-((1S,2S)-1,3-dihydroxy-1-phenylpropan-2-yl)-4-(4-methylphenethyl) piperidine-2-carboxamide]
28 | EtOH, DMSO | O=C(N[C@@H](CO)[C@@H](O)c1ccccc1)[C@@H]1C[C@H](C2CCCCC2)CCN1 [CYD-6-15-2, (2S,4R)-4-cyclohexyl-N-((1S,2S)-1,3-dihydroxy-1-phenylpropan-2-yl)piperidine-2-carboxamide]
29 | EtOH, DMSO | O=C(N[C@@H](CO)[C@@H](O)c1ccccc1)[C@@H]1C[C@H](c2ccccc2)CCN1 [CYD-6-16-2, (2S,4R)—N-((1S,2S)-1,3-dihydroxy-1-phenylpropan-2-yl)-4-phenylpiperidine-2-carboxamide]
30 | EtOH, DMSO | c1ccc(N2CCNCC2CN2CCCCC2)cc1 (stereo not shown) [JZ-1-34]
31 | EtOH, DMSO | c1ccc(N2CCN(CC3CNCCN3c3ccccc3)CC2)cc1 (stereo not shown) [JZ-1-35]
